Data as given in US6858402B2 (The Regents of the University of California, priority 1996, dated 2005).

Tests used:
THP-1 cells [1] = test: Effect of inhibitors co-incubated with PMA on TRRE production; format: cell-based, human
Excerpt: Several inhibitors including cycloheximide (Chx) (an inhibitor of protein synthesis), actinomycin D (ActD) (an inhibitor of RNA synthesis), N-ethylmaleimide (NEM) (an inhibitor of membrane internalization and movement), cytochalasin B (CytB) (an inhibitor of microfilament formation), and colchicine (Col) (an inhibitor of microtubule formation) were purchased from Sigma Chemical (St. Louis, Mo.). THP-1 cells at a density of 1×10^6 cells/ml in RPMI-1640/1% FCS with 10^−6 M PMA was co-stimulated along with 10 μg/ml Chx, 1 μg/ml ActD, 1 mM NEM, 0.1 mM CytB, or 0.1 mM Col for 30 min at 37° C. in 5% CO2. Following centrifugation at 400×g for 5 min, the supernatant was discarded and the cells were washed once with serum-free medium. The cells were incubated for an additional 2 hours at the same density (1×10^6 cells/ml) in PMA-free RPMI-1640 with corresponding inhibitors.

THP-1 cells [2] = test: as above; format: cell-based, human; settings: inhibitor 0.01 mM with 10^−6 M PMA
[3] = test system: Lipopolysaccharide-induced shock; settings: Yamamoto et al. (1997); cited from earlier work
TNF [4] = settings: in vitro and in vivo; Solorzano et al. (1997); cited from earlier work
THP-1 cells [5] = test: Induction of TRRE by PMA stimulation, TRRE assay of supernatant; format: cell-based, human; settings: for TRRE Activity (U/ml): THP-1, 10^−6 M PMA 30 min
[6] = test system: human peripheral blood monocytes; test: as above; format: cell-based; settings: for TRRE Activity (U): Human Monocyte
Description: (§1) C75R cells and COS-1 cells were seeded into 24-well culture plates at a density of 2.5×10^5 cells/ml/well and incubated overnight (for 12 to 16 hours) in 5% CO2 at 37° C. […] (corresponding to A and C mentioned below, respectively). Simultaneously, C75R cells in 24-well plates were also incubated with 300 μl of fresh medium or buffer (corresponding to B mentioned below). The supernatants were collected, centrifuged, and then assayed for the concentration of soluble p75 TNF-R by ELISA as described above.
Mononuclear cells were harvested at the interface of an isotonic Ficoll cushion (specific gravity, 1.05) from a Leukopac obtained from normal healthy volunteers according to the manufacturer's instructions (Sigma). Then monocytes were isolated by counterflow centrifugal elutriation with a Beckman JE-5.0 system. On average, the purity of the monocyte fraction was over 95%, as judged by morphologic examination and nonspecific esterase staining, and viability was over 98% as assessed by the trypan blue dye exclusion test.
(§2) The stimulated cells were washed with serum-free medium and resuspended in the same volume of PMA-free medium with 1% FCS for 2 more hours in 5% CO2 at 37° C.

U-937 = test: as above; format: cell-based, human; settings: U-937, 10^−6 M PMA
Excerpt: (§3) THP-1 (a human monocytic leukemia cell line), U-937 (a human histiocytic lymphoma cell line), HL-60 (a human promyelocytic leukemia cell line), Raji (a human Burkitt lymphoma cell line) and K-562 (a human myelogenous leukemia cell line), which grow in suspension, and ME-180 (a human epidermoid carcinoma cell line) and MRC-5 (a human lung fibroblast cell line), which grow adherently, were purchased from American Type Culture Collection (Rockville, Md.). These cell lines were passed twice a week in RPMI-1640/10% heat-inactivated FCS.
(§4) Suspension cell lines including THP-1, U-937, HL-60, Raji and K-562 at a density of 1×10^6 cells/ml were stimulated in RPMI-1640/1% FCS-with 10^−6 M PMA for 30 min in 5% CO2 at 37° C. After pelleting the cells and discarding the supernatants, the cells were washed once with serum-free medium and then incubated for 2 more hours at the same density of 1×10^6 cells/ml in PMA-free RPMI-1640/1% FCS. Adherent cell lines including ME-180 and MRC-5 were seeded in 100 mm cell culture plates with RPMI-1640/10% FCS-at a density of 6×10^6 cells/10 ml/plate in 5% CO2 at 37° C. overnight. After discarding the medium from the 100 mm plates, these adherent cells were stimulated in 6 ml of RPMI-1640/1% FCS with 10^−6 M PMA (at an approximate density of 1×10^6 cells/ml) for 30 min in 5% CO2 at 37° C. Following washing of the plates with serum-free medium 3 times, the cells were incubated for 2 more hours in 6 ml of PMA-free RPMI-1640/1% FCS.

K-562 = test: as above; format: cell-based, human; settings: K-562, 10^−6 M PMA
Excerpt: as §3, §4

MRC-5 = test: as above; format: cell-based, human; settings: MRC-5, 10^−6 M PMA
Excerpt: as §3, §4

Raji = test: as above; format: cell-based, human; settings: 10^−6 M PMA
Excerpt: as §3, §4

ME-180 = test: as above; format: cell-based, human; settings: ME-180, 10^−6 M PMA
Excerpt: as §3, §4

HL-60 = test: as above; format: cell-based, human; settings: HL-60, 10^−6 M PMA
Excerpt: as §3, §4

THP-1 cells [7] = test: as above; format: cell-based, human
Description: THP-1 cells growing in logarithmic phase were collected and resuspended to 1×10^6 cells/ml of RPMI-1640 supplemented with 1% FCS and incubated with 10^−6 M PMA for 30 min in 5% CO2 at 37° C. The cells were collected and washed once with serum-free medium to remove PMA and resuspended in the same volume of RPMI-1640 with 1% FCS. After 2 hours incubation in 5% CO2 at 37° C., the cell suspension was collected, centrifuged, and the cell-free supernatant was collected as the TRRE-containing sample.
Briefly, C75R and COS-1 cells were seeded at 2.5×10^5 cells/ml/well in a 24-well culture plate and incubated in 5% CO2 at 37° C. for 12 to 16 hours. […] Simultaneously, C75R was incubated with 300 μl of fresh medium or buffer. At the end of the incubation period, the samples from each well were collected and the levels of soluble p75 TNF-R were measured by ELISA.
as §1, §2, §4
THP-1 cells were stimulated with 10−6 M PMA in RPMI-1640 with 1% FCS for 30 min.
THP-1 cells at a density of 1×10^6 cells/ml were stimulated in 1% FCS-contained RPMI-1640 with 10^−6 M PMA for 30 min at 37° C. in 5% CO2. After washing the cells with serum-free medium to remove PMA, the cells were incubated in the same volume of 1% FCS-contained RPMI-1640 without PMA for 2 hours at 37° C. in 5% CO2. Then the cells were centrifuged down and the supernatant was collected for TRRE assay. These pelleted cells were again resuspended in 1% FCS-contained RPMI-1640 with or without 10^−6 M PMA and incubated for 30 min at 37° C. in 5% CO2. After washing the cells with serum-free medium to remove PMA, the cells, stimulated or non-stimulated by PMA, were incubated in the same volume of 1% FCS-contained RPMI-1640 without PMA for 2 and 4 hours each at 37° C. in 5% CO2.

TNF [8] = settings: Shohami et al. (1997); cited from earlier work
sTNF-R = settings: Seitz et al. (1997); cited from earlier work
[9] = test system: soluble p75 and p55 TNF-R; settings: Crowe et al. (1995); Mullberg et al. (1995); cited from earlier work
[10] = molecular target: human p55 TNF-R (on THP-1 cells) (human) (UniProt P19438); test: cell-based or functional assay
human p55 TNF-R (on THP-1 cells) (human), sequence (P19438 30-455): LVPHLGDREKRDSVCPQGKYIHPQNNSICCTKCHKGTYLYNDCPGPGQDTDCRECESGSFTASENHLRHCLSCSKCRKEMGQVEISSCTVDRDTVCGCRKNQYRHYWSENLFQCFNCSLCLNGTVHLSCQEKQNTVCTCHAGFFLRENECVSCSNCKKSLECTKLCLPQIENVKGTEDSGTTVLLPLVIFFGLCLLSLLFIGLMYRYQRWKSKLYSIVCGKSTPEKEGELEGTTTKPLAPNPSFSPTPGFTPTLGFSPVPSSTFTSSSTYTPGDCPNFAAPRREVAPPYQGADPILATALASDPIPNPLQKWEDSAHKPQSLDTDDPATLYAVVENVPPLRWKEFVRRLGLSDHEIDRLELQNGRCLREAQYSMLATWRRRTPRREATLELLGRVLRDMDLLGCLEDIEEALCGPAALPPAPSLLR

[11] = molecular target: human p75 TNF-R (membrane-bound, on C75R transfected COS-1 cells or on THP-1 cells) (human) (UniProt P20333); test: cell-based or functional assay
human p75 TNF-R (membrane-bound, on C75R transfected COS-1 cells or on THP-1 cells) (human), sequence (P20333 23-461 C75R limits assumed): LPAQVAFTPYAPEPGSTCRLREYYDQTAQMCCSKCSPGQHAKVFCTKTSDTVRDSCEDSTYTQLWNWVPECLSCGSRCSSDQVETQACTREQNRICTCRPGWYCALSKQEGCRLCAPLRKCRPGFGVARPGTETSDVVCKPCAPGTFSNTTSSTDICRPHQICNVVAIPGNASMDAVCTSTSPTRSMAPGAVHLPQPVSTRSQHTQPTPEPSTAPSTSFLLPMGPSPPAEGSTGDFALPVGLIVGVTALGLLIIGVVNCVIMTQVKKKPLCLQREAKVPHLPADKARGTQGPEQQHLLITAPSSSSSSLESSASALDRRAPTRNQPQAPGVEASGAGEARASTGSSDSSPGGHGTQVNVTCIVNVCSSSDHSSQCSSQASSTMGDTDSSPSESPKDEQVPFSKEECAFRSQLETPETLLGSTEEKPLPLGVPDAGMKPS

[12] = molecular target: TNF-R on L929 cells (murine); test: cell-based or functional assay
[13] = molecular target: human soluble p75 TNF-R (human) (UniProt P20333); test: soluble p75 TNF-R-Affigel 10 affinity chromatography of TRRE after reaction with C75R cells; TRRE activity assay of fractions
human soluble p75 TNF-R (human), sequence (P20333 23-257): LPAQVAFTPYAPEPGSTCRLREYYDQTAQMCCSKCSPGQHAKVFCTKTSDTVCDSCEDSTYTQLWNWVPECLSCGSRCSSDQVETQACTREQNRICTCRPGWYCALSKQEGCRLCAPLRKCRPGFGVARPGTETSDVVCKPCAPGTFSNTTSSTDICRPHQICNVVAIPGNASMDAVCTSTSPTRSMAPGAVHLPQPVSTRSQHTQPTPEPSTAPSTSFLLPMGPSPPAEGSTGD

THP-1 cells [14] = test: Induction of TRRE by cytokines and hormones; format: cell-based, human; settings: 2 hours stimulation; IL-10 100 ng/ml, epinephrine 10^−6 M, insulin 10^−7 M, IL-1β 10 ng/ml, IL-6 100 ng/ml
[15] = inhibitor 0.1 mM with 10^−6 M PMA

## COc1cc2c(c(OC)c1OC)-c1ccc(OC)c(=O)cc1[C@@H](NC(C)=O)CC2 [Colchicine, colchicine]
THP-1 cells [1]; [15]
  % of TRRE production: 111%
THP-1 cells [1]; inhibitor 1 mM with 10^−6 M PMA
  % of TRRE production: 125%
THP-1 cells [2]
  % of TRRE production: 95%

## C=C1[C@@H](C)[C@H]2[C@H](Cc3ccccc3)NC(=O)[C@]23OC(=O)/C=C/[C@H](O)CCC[C@@H](C)C/C=C/[C@H]3[C@@H]1O [Cytochalasin B, cytochalasin B]
THP-1 cells [1]; [15]
  % of TRRE production: 91%
THP-1 cells [2]
  % of TRRE production: 103%

## O=C(C(=O)N1CCn2nc(-c3ccc(F)cc3)c(-c3ccncc3)c2N1)c1ccccc1.O=S(=O)(O)O [FR167653]
[3]
  Lipopolysaccharide-induced shock: ameliorated

## CNC(=O)[C@H](Cc1c[nH]c2ccccc12)NC(=O)[C@@H](CC(=O)NO)CC(C)C [GM-6001]
TNF [4]
  release of TNF: prevents the release of TNF

## CCCCCCCCCCCCCC(=O)O[C@@H]1[C@@H](C)[C@@]2(O)[C@@H](C=C(CO)C[C@]3(O)C(=O)C(C)=C[C@@H]23)[C@@H]2C(C)(C)[C@]12OC(C)=O [PMA, phorbol 12-myristate 13-acetate]
THP-1 cells [5]; PMA-stimulated THP-1, 0% FCS
  TRRE produced (FIG. 10A): 217 U/ml
THP-1 cells [5]; then 2 hours PMA-free with 0% FCS
  TRRE Activity (U/ml): 224 U/ml
THP-1 cells [5]; then 2 hours PMA-free with 10% FCS
  TRRE Activity (U/ml): 2,275 U/ml
THP-1 cells [5]; THP-1, 10^−8 M PMA
  TRRE induction: did not induce any TRRE
THP-1 cells [5]; THP-1, PMA 10^−7 M
  TRRE Activity (U): 368 U
[6]; PMA 10^−6 M
  TRRE Activity (U): 883 U
[6]; PMA 10^−7 M
  TRRE Activity (U): 51 U
[6]; human monocytes, 10^−6 M PMA 30 min, then 2 hours PMA-free
  TRRE release: 883 U/ml
[6]; monocytes, 10^−8 M PMA
  TRRE induction: did not induce any TRRE
U-937
  TRRE (U/ml/10^6 cells): 3,288 U/ml/10^6 cells
K-562
  TRRE (U/ml/10^6 cells): 3,356 U/ml/10^6 cells
MRC-5
  TRRE (U/ml/10^6 cells): 1,477 U/ml/10^6 cells
Raji
  TRRE (U/ml/10^6 cells): 2,390 U/ml/10^6 cells
ME-180
  TRRE (U/ml/10^6 cells): 1,694 U/ml/10^6 cells
HL-60
  TRRE (U/ml/10^6 cells): 3,144 U/ml/10^6 cells
THP-1 cells [7]; PMA-stimulated THP-1, 1% FCS
  TRRE produced (FIG. 10A): 2,096 U/ml
THP-1 cells [7]; THP-1, 10^−6 M PMA
  TRRE (U/ml/10^6 cells): 2,884 U/ml/10^6 cells
THP-1 cells [7]; THP-1, 10^−6 M PMA 30 min, then 2 hours PMA-free
  TRRE release: 1,304 U/ml
THP-1 cells [7]; THP-1, 10^−6 M PMA 30 min, then 2 hours PMA-free with 1% FCS
  TRRE Activity (U/ml): 1,356 U/ml
THP-1 cells [7]; THP-1, PMA 10^−6 M
  TRRE Activity (U): 1,304 U
THP-1 cells [7]; THP-1, after first PMA stimulation, no second PMA, 2 hours and 4 hours
  TRRE released: no TRRE activity
THP-1 cells [7]; THP-1, first stimulation of PMA
  TRRE released: 951 U/ml
THP-1 cells [7]; THP-1, second PMA stimulation 30 min, additional 2 hours PMA-free
  TRRE released: 1,245 U/ml
THP-1 cells [7]; THP-1, second PMA stimulation 30 min, additional 4 hours PMA-free
  TRRE released: 1,044 U/ml

## CCCCCCC(C)(C)c1cc(O)c2c(c1)OC(C)(C)[C@H]1CC=C(CO)C[C@H]21 [dexanabinol]
TNF [8]
  protection against TNF following traumatic brain injury: provided protection

## CCCCC[C@H](O)/C=C/[C@H]1[C@H](O)CC(=O)[C@@H]1C/C=C\CCCC(=O)O [prostaglandin E2]
sTNF-R
  sTNF-R shedding: not affected

## TAPI
[9]
  shedding of soluble p75 and p55 TNF-R: blocks the shedding

## TNF receptor releasing enzyme (TRRE), from PMA-stimulated THP-1 cells
[10]
  cell surface expression on THP-1 cells after 5,000 U/ml TRRE (flow cytometry, percent control of MFI): 8 % control
  soluble p55 TNF-R released from THP-1 cells (ELISA) after 1,000 U/ml TRRE for 30 min: 2380 pg/mL
[11]
  cell surface expression on THP-1 cells after 5,000 U/ml TRRE (flow cytometry, percent control of MFI): 49 % control
  soluble p75 TNF-R released from THP-1 cells (ELISA) after 1,000 U/ml TRRE for 30 min: 1660 pg/mL
[12]
  ratio of surviving L929 cells with 4 ng/ml TNF to cells without TNF, pretreated with 100 U/ml TRRE (control without TRRE: 24%): 30%
  ratio of surviving L929 cells with 4 ng/ml TNF to cells without TNF, pretreated with 500 U/ml TRRE (control without TRRE: 24%): 38%
  ratio of surviving L929 cells with 4 ng/ml TNF to cells without TNF, pretreated with 2,500 U/ml TRRE (control without TRRE: 24%): 74%
[13]
  percent of recovered TRRE activity in the elution of the soluble p75 TNF-R affinity column: 25%
  percent of recovered TRRE activity in the flow through of the soluble p75 TNF-R affinity column (not retained): 53%
  percent of recovered TRRE activity in the wash of the soluble p75 TNF-R affinity column (not retained): 22%

## gold sodium thiomalate
sTNF-R
  sTNF-R shedding: not affected

B1: IL-10: cytokine (protein, UniProt P22301 19-178, looked up)
Interleukin-10: SPGQGTQSENSCTHFPGNLPNMLRDLRDAFSRVKTFFQMKDQLDNLLLKESLLEDFKGYLGCQALSEMIQFYLEEVMPQAENQDPDIKAHVNSLGENLKTLRLRLRRCHRFLPCENKSKAVEQVKNAFNKLQEKGIYKAMSEFDIFINYIEAYMTMKIRN
THP-1 cells [14]
  induction of TRRE activity: induced TRRE activity
